Among the test systems are 786-0; A549; CAKI-1; CCRF-CEM; HL-60; HOP-92; HT-29; KM12; M14; MCF7; MDA-MB-231; NCI-H226; OVCAR-5; OVCAR-8; SK-MEL-2; SN12C; SW-620; ACHN; Hs-578T; LOX IMVI.
Common to all, as to assay: DTP human tumour cell line panel, 48 h

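Protocol summary: plate cells (96-well), add compound at 5 concentrations, incubate 48 h, interpolate endpoints linearly. At the GI50, growth is halved.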 Calls of active or inactive are those of the source. Rule as the data show it: active = GI50 up to about 1.1 µM and inactive = higher.

For `COC1=C2C[C@@H](C)C[C@@H](OC)[C@@H](O)[C@H](C)/C=C(\C)[C@@H](OC(N)=O)[C@H](OC)/C=C\C=C(/C)C(=O)NC(=CC1=O)C2=O`, the GI50 (in general, the concentration at which growth is held to half of that of the control) in the assay with 786-0 is 0.0762 µM (active); in the assay with A549, 5.78 µM (inactive); in the assay on CAKI-1 it was 1.77 µM (inactive); in the assay on CCRF-CEM, 0.0282 µM (active); in the assay on HL-60, 0.0132 µM (active); with HOP-92, 0.112 µM (active). In addition, the concentration for 50% growth inhibition (GI50) in the assay on HT-29 is 0.0143 µM (active); in the assay with KM12 it was 0.455 µM (active); in the assay with M14, 0.106 µM (active); in the assay with MCF7, 0.0198 µM (active); in the assay on MDA-MB-231, 0.0421 µM (active); with NCI-H226, 3.56 µM (inactive). Besides, the GI50 is 6.87 µM (inactive) in the assay with OVCAR-5; 0.0614 µM (active) with OVCAR-8; 0.396 µM (active) in the assay with SK-MEL-2; 0.0405 µM (active) in the assay with SN12C; 0.0127 µM (active) in the assay with SW-620.

Regarding `O=C(Cc1ccccc1)N/N=C1\C(=O)Nc2ccccc21`, the GI50 was 80.5 µM (inactive) in the assay with 786-0; > 100 µM (inactive) in the assay on A549; > 100 µM (inactive) in the assay on ACHN; > 100 µM (inactive) in the assay with CCRF-CEM; > 100 µM (inactive) with HT-29; 65.3 µM (inactive) in the assay on Hs-578T. In addition, the GI50 in the assay with KM12 is > 100 µM (inactive); in the assay on M14 it was > 100 µM (inactive); in the assay with MCF7, 49.8 µM (inactive); in the assay on MDA-MB-231, 18.8 µM (inactive); in the assay on NCI-H226, 71.9 µM (inactive); in the assay on OVCAR-5, > 100 µM (inactive). The GI50 with OVCAR-8 was > 100 µM (inactive); in the assay with SK-MEL-2, > 100 µM (inactive); with SN12C, 48.5 µM (inactive).

For the molecule `N#CC(C(=O)CCC(=O)Nc1cccc(C(F)(F)F)c1)c1ccccc1` (configuration not stated), the GI50 with 786-0, in the assay with A549, in the assay with ACHN, in the assay with CAKI-1, with CCRF-CEM and in the assay on HL-60 was > 100 µM (inactive) in each case. Besides, the GI50 in the assay on HOP-92, with HT-29, in the assay on KM12, in the assay with LOX IMVI, with M14 and in the assay on NCI-H226 was > 100 µM (inactive) throughout. The GI50 in the assay with OVCAR-5, in the assay with OVCAR-8, with SK-MEL-2, in the assay with SN12C and in the assay on SW-620 was > 100 µM (inactive) in each case.

In the case of `O=C(CCCCCCCCCCc1ccccc1)C1=C(O)CC(O)CC1=O` (configuration not stated), the GI50 in the assay with 786-0 was 58.1 µM (inactive); in the assay on A549, 42.1 µM (inactive); with ACHN, 58.5 µM (inactive); in the assay with CAKI-1, 94.4 µM (inactive); with CCRF-CEM, 45.1 µM (inactive); in the assay with HL-60 it was 20.7 µM (inactive). Besides, the GI50 in the assay on HOP-92 is 33.3 µM (inactive); in the assay with HT-29, 47.6 µM (inactive); in the assay with KM12 it was 38.4 µM (inactive); in the assay with LOX IMVI, 48.2 µM (inactive); in the assay with M14 it was 59.8 µM (inactive); in the assay with NCI-H226, 24 µM (inactive). In addition, the GI50 with OVCAR-5 is 39.5 µM (inactive); in the assay with OVCAR-8, 49.7 µM (inactive); with SK-MEL-2, 25.4 µM (inactive); in the assay with SN12C it was 96.2 µM (inactive); in the assay on SW-620, 76.9 µM (inactive).

As for `CN(C)CCNC(=O)c1cccc2nc3ccc4cccnc4c3nc12`, the concentration for 50% growth inhibition (GI50) is 0.454 µM (active) in the assay on 786-0; 0.284 µM (active) in the assay on A549; 0.126 µM (active) in the assay with ACHN; 0.224 µM (active) in the assay on CAKI-1; 0.213 µM (active) in the assay on CCRF-CEM; 0.348 µM (active) in the assay on HL-60. Besides, the GI50 in the assay with HOP-92 is 0.351 µM (active); with HT-29, 0.208 µM (active); with KM12 it was 0.564 µM (active); with LOX IMVI, 0.24 µM (active); in the assay with M14 it was 0.631 µM (active); in the assay with NCI-H226, 0.319 µM (active). Besides, the GI50 was 0.916 µM (active) with OVCAR-5; 0.194 µM (active) in the assay with OVCAR-8; 0.895 µM (active) in the assay with SK-MEL-2; 0.172 µM (active) in the assay with SN12C; 0.0675 µM (active) in the assay with SW-620.

For `CN(C)CCNC(=O)c1cc([N+](=O)[O-])cc2ccc(-c3ccccc3)nc12`, the GI50 with 786-0 is 16.4 µM (inactive); in the assay with A549, 7.64 µM (inactive); in the assay on ACHN, 10.5 µM (inactive); in the assay with CAKI-1 it was 10 µM (inactive); in the assay on CCRF-CEM, 3.1 µM (inactive); in the assay with HL-60 it was 7.29 µM (inactive). For the same molecule, the GI50 is 10.5 µM (inactive) in the assay with HOP-92; 3.85 µM (inactive) with HT-29; 7.94 µM (inactive) in the assay on KM12; 7.03 µM (inactive) in the assay on LOX IMVI; 33.7 µM (inactive) in the assay with M14; 2.71 µM (inactive) with MCF7. Besides, the GI50 in the assay on NCI-H226 is 3.27 µM (inactive); with OVCAR-5 it was 6.4 µM (inactive); in the assay with OVCAR-8 it was 8.11 µM (inactive); in the assay on SK-MEL-2, 19.3 µM (inactive); in the assay on SN12C it was 10.4 µM (inactive); in the assay on SW-620, 5.22 µM (inactive).

As to `CCOC(=O)N1[C@@H]2CCC[C@@H]2C(=O)[C@@H]2CCC[C@@H]21`, the GI50 with 786-0, with A549, in the assay on ACHN, in the assay on CAKI-1, in the assay with CCRF-CEM and in the assay on HL-60 was > 100 µM (inactive) throughout. For the same molecule, the GI50 with HOP-92, in the assay on HT-29, with Hs-578T, with KM12, in the assay on LOX IMVI and with M14 was > 100 µM (inactive) in each case. In addition, the GI50 in the assay with MDA-MB-231, in the assay with NCI-H226, in the assay with OVCAR-5, in the assay with OVCAR-8, in the assay on SK-MEL-2 and with SN12C was > 100 µM (inactive) throughout. Also, the GI50 in the assay on SW-620 was > 100 µM (inactive).

As to `O=c1cc(-c2ccccc2)[nH]c2cc(F)cc(F)c12`, the GI50 in the assay on 786-0 is 52.4 µM (inactive); in the assay on A549, 20.8 µM (inactive); with ACHN, 50.9 µM (inactive); in the assay with CAKI-1, 21.8 µM (inactive); in the assay with CCRF-CEM, 61.7 µM (inactive); in the assay with HL-60, 21.8 µM (inactive). The GI50 with HOP-92 is 41.6 µM (inactive); in the assay on HT-29, 36.6 µM (inactive); with KM12 it was 4.56 µM (inactive); with LOX IMVI, 55.8 µM (inactive); in the assay on M14, 30.3 µM (inactive); in the assay with NCI-H226, 20.9 µM (inactive). Moreover, the GI50 with OVCAR-5 is 43.5 µM (inactive); with OVCAR-8 it was 57.5 µM (inactive); in the assay on SK-MEL-2, 18.2 µM (inactive); with SN12C it was 52.5 µM (inactive); in the assay on SW-620 it was 14.4 µM (inactive).

In the case of `COC(=O)C1=C(C(=O)OC)C(C(=O)c2ccccc2)N2N=C(c3ccc(Cl)cc3)C=CC12` (configuration not stated), the GI50 was > 100 µM (inactive) with 786-0; 31 µM (inactive) in the assay with A549; > 100 µM (inactive) in the assay on ACHN; > 100 µM (inactive) with CAKI-1; 13.6 µM (inactive) in the assay on CCRF-CEM; 3.85 µM (inactive) with HL-60. Besides, the GI50 with HOP-92 was > 100 µM (inactive); with HT-29, 9.59 µM (inactive); in the assay on KM12, 13.1 µM (inactive); with LOX IMVI, 18.7 µM (inactive); with M14 it was > 100 µM (inactive); in the assay with MCF7 it was 75.7 µM (inactive). For the same molecule, the GI50 in the assay on MDA-MB-231 was > 100 µM (inactive); with NCI-H226, 13.9 µM (inactive); in the assay with OVCAR-5, > 100 µM (inactive); in the assay on OVCAR-8, 12.4 µM (inactive); with SK-MEL-2, > 100 µM (inactive); with SN12C it was 85.5 µM (inactive). In addition, in the assay on SW-620, the GI50 was > 100 µM (inactive).

In the case of `Cc1cccc(/C=C2\CCCCCC2=O)c1`, the GI50 was > 100 µM (inactive) with 786-0; > 100 µM (inactive) in the assay with A549; > 100 µM (inactive) with ACHN; > 100 µM (inactive) in the assay with CAKI-1; 28.8 µM (inactive) in the assay with CCRF-CEM; < 0.01 µM (active) in the assay on HL-60. The GI50 with HOP-92, with HT-29, in the assay on Hs-578T, in the assay on KM12, in the assay with LOX IMVI and in the assay with M14 was > 100 µM (inactive) each time. Moreover, the GI50 in the assay on MDA-MB-231, in the assay with NCI-H226, in the assay on OVCAR-5, in the assay with SK-MEL-2, in the assay with SN12C and in the assay with SW-620 was > 100 µM (inactive) throughout.

Consider `NC(=O)CN1C=CCC(C(N)=O)=C1` [CARICOTAMIDE], for which the GI50 in the assay with 786-0, in the assay on A549, in the assay with ACHN, with CAKI-1, in the assay on CCRF-CEM and in the assay with HL-60 was > 100 µM (inactive) throughout. Further, the GI50 in the assay with HOP-92, with HT-29, in the assay with KM12, with LOX IMVI, in the assay with M14 and in the assay on MCF7 was > 100 µM (inactive) in each case. For the same molecule, the GI50 in the assay with NCI-H226, in the assay on OVCAR-5, with OVCAR-8, with SK-MEL-2, in the assay with SN12C and with SW-620 was > 100 µM (inactive) each time.

Values taken from ChEMBL document CHEMBL1201862, “PubChem BioAssay data set” (2004).
